Measured values: PubChem BioAssay (NCI)
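Exposure lasted 48 hours, with cells grown in 96-well plates and compounds tested at five concentrations. TGI: concentration producing complete growth inhibition.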

How the values were obtained:
Test in all cases: DTP human tumour cell line panel, 48 h
786-0 renal = test system: 786-0 renal
A498 renal = test system: A498 renal
A549 NSCLC = test system: A549 NSCLC
ACHN renal = test system: ACHN renal
BT-549 breast = test system: BT-549 breast
CAKI-1 renal = test system: CAKI-1 renal
CCRF-CEM leukemia = test system: CCRF-CEM leukemia
COLO 205 colon = test system: COLO 205 colon
DU-145 prostate = test system: DU-145 prostate
EKVX NSCLC = test system: EKVX NSCLC
HCC-2998 colon = test system: HCC-2998 colon
HCT-116 colon = test system: HCT-116 colon
HCT-15 colon = test system: HCT-15 colon
HL-60(TB) leukemia = test system: HL-60(TB) leukemia
HOP-62 NSCLC = test system: HOP-62 NSCLC
HS 578T breast = test system: HS 578T breast
HT29 colon = test system: HT29 colon
IGROV1 ovarian = test system: IGROV1 ovarian
K-562 leukemia = test system: K-562 leukemia
KM12 colon = test system: KM12 colon
LOX IMVI melanoma = test system: LOX IMVI melanoma
M14 melanoma = test system: M14 melanoma
MALME-3M melanoma = test system: MALME-3M melanoma
MCF7 breast = test system: MCF7 breast
MDA-MB-231 breast = test system: MDA-MB-231 breast
MDA-MB-435 = test system: MDA-MB-435
MDA-N = test system: MDA-N
MOLT-4 leukemia = test system: MOLT-4 leukemia
NCI-H23 lung = test system: NCI-H23 lung
NCI-H460 lung = test system: NCI-H460 lung
NCI-H522 lung = test system: NCI-H522 lung
NCI/ADR-RES ovarian = test system: NCI/ADR-RES ovarian
OVCAR-3 ovarian = test system: OVCAR-3 ovarian
OVCAR-4 ovarian = test system: OVCAR-4 ovarian
OVCAR-5 ovarian = test system: OVCAR-5 ovarian
OVCAR-8 ovarian = test system: OVCAR-8 ovarian
PC-3 prostate = test system: PC-3 prostate
RPMI-8226 leukemia = test system: RPMI-8226 leukemia
RXF 393 renal = test system: RXF 393 renal
SF-268 CNS = test system: SF-268 CNS
SF-295 CNS = test system: SF-295 CNS
SF-539 CNS = test system: SF-539 CNS
SK-MEL-2 melanoma = test system: SK-MEL-2 melanoma
SK-MEL-28 melanoma = test system: SK-MEL-28 melanoma
SK-MEL-5 melanoma = test system: SK-MEL-5 melanoma
SK-OV-3 ovarian = test system: SK-OV-3 ovarian
SN12C renal = test system: SN12C renal
SNB-19 CNS = test system: SNB-19 CNS
SR leukemia = test system: SR leukemia
SW-620 colon = test system: SW-620 colon
T-47D breast = test system: T-47D breast
TK-10 renal = test system: TK-10 renal
U251 CNS = test system: U251 CNS
UACC-257 melanoma = test system: UACC-257 melanoma
UACC-62 melanoma = test system: UACC-62 melanoma
UO-31 renal = test system: UO-31 renal
HOP-92 NSCLC = test system: HOP-92 NSCLC
NCI-H226 lung = test system: NCI-H226 lung

Structure (SMILES): NC(=O)/C=c1/c2ccccc2n2nc3ccccc3c12
- TGI (786-0 renal): 77.4 µM
- TGI (A498 renal): 79.4 µM
- TGI (A549 NSCLC): > 100 µM
- TGI (ACHN renal): 29.1 µM
- TGI (BT-549 breast): 95.9 µM
- TGI (CAKI-1 renal): 82.5 µM
- TGI (CCRF-CEM leukemia): > 100 µM
- TGI (COLO 205 colon): 40.6 µM
- TGI (DU-145 prostate): > 100 µM
- TGI (EKVX NSCLC): 42.7 µM
- TGI (HCC-2998 colon): 36.8 µM
- TGI (HCT-116 colon): 21 µM
- TGI (HCT-15 colon): 40.8 µM
- TGI (HL-60(TB) leukemia): 7.58 µM
- TGI (HOP-62 NSCLC): 77.2 µM
- TGI (HS 578T breast): 87.6 µM
- TGI (HT29 colon): 29.8 µM
- TGI (IGROV1 ovarian): 35 µM
- TGI (K-562 leukemia): 53.2 µM
- TGI (KM12 colon): 56.5 µM
- TGI (LOX IMVI melanoma): 19.7 µM
- TGI (M14 melanoma): 71.7 µM
- TGI (MALME-3M melanoma): 53.4 µM
- TGI (MCF7 breast): > 100 µM
- TGI (MDA-MB-231 breast): 7.52 µM
- TGI (MDA-MB-435): 35.1 µM
- TGI (MDA-N): 35.6 µM
- TGI (MOLT-4 leukemia): 7.69 µM
- TGI (NCI-H23 lung): 64.1 µM
- TGI (NCI-H460 lung): > 100 µM
- TGI (NCI-H522 lung): 33.2 µM
- TGI (NCI/ADR-RES ovarian): 50.7 µM
- TGI (OVCAR-3 ovarian): 49.1 µM
- TGI (OVCAR-4 ovarian): 39.4 µM
- TGI (OVCAR-5 ovarian): 77.8 µM
- TGI (OVCAR-8 ovarian): 27.4 µM
- TGI (PC-3 prostate): > 100 µM
- TGI (RPMI-8226 leukemia): 29.1 µM
- TGI (RXF 393 renal): 46.5 µM
- TGI (SF-268 CNS): 47.5 µM
- TGI (SF-295 CNS): > 100 µM
- TGI (SF-539 CNS): 31.9 µM
- TGI (SK-MEL-2 melanoma): 57.1 µM
- TGI (SK-MEL-28 melanoma): 33.9 µM
- TGI (SK-MEL-5 melanoma): > 100 µM
- TGI (SK-OV-3 ovarian): 59.3 µM
- TGI (SN12C renal): 40.2 µM
- TGI (SNB-19 CNS): 49.3 µM
- TGI (SR leukemia): 6.16 µM
- TGI (SW-620 colon): 44.5 µM
- TGI (T-47D breast): > 100 µM
- TGI (TK-10 renal): > 100 µM
- TGI (U251 CNS): 29.3 µM
- TGI (UACC-257 melanoma): 41 µM
- TGI (UACC-62 melanoma): 37 µM
- TGI (UO-31 renal): 77 µM

Structure (SMILES): N#Cc1nc(-c2ccccn2)oc1N
- TGI (786-0 renal): > 100 µM
- TGI (A498 renal): > 100 µM
- TGI (ACHN renal): > 100 µM
- TGI (BT-549 breast): > 100 µM
- TGI (CAKI-1 renal): > 100 µM
- TGI (CCRF-CEM leukemia): > 100 µM
- TGI (COLO 205 colon): > 100 µM
- TGI (DU-145 prostate): > 100 µM
- TGI (EKVX NSCLC): > 100 µM
- TGI (HCC-2998 colon): > 100 µM
- TGI (HCT-116 colon): > 100 µM
- TGI (HCT-15 colon): > 100 µM
- TGI (HL-60(TB) leukemia): > 100 µM
- TGI (HOP-62 NSCLC): > 100 µM
- TGI (HOP-92 NSCLC): > 100 µM
- TGI (HS 578T breast): > 100 µM
- TGI (HT29 colon): > 100 µM
- TGI (IGROV1 ovarian): > 100 µM
- TGI (K-562 leukemia): > 100 µM
- TGI (KM12 colon): > 100 µM
- TGI (LOX IMVI melanoma): > 100 µM
- TGI (MALME-3M melanoma): > 100 µM
- TGI (MCF7 breast): > 100 µM
- TGI (MDA-MB-231 breast): > 100 µM
- TGI (MDA-MB-435): > 100 µM
- TGI (MDA-N): > 100 µM
- TGI (MOLT-4 leukemia): > 100 µM
- TGI (NCI-H226 lung): > 100 µM
- TGI (NCI-H23 lung): > 100 µM
- TGI (NCI-H460 lung): > 100 µM
- TGI (NCI-H522 lung): > 100 µM
- TGI (OVCAR-3 ovarian): > 100 µM
- TGI (OVCAR-4 ovarian): > 100 µM
- TGI (OVCAR-5 ovarian): > 100 µM
- TGI (PC-3 prostate): > 100 µM
- TGI (RPMI-8226 leukemia): > 100 µM
- TGI (RXF 393 renal): > 100 µM
- TGI (SF-268 CNS): > 100 µM
- TGI (SF-295 CNS): > 100 µM
- TGI (SK-MEL-2 melanoma): > 100 µM
- TGI (SK-MEL-28 melanoma): > 100 µM
- TGI (SK-MEL-5 melanoma): > 100 µM
- TGI (SK-OV-3 ovarian): > 100 µM
- TGI (SN12C renal): > 100 µM
- TGI (SNB-19 CNS): > 100 µM
- TGI (SR leukemia): > 100 µM
- TGI (SW-620 colon): > 100 µM
- TGI (TK-10 renal): > 100 µM
- TGI (U251 CNS): > 100 µM
- TGI (UACC-257 melanoma): > 100 µM
- TGI (UACC-62 melanoma): > 100 µM
- TGI (UO-31 renal): > 100 µM
